Source: patent US5674697A, “High sensitivity immunoassay for polychlorinated dibenzo-p-dioxins and polychlorinated dibenzofurans” (priority 1995, dated 1997)
Read-outs that look alike come from different tables or passages of the source.

Key:
[1] = cited from earlier work; for TEF* (toxic equivalency factor): Table II, congeners of the TEF Mixture native standard
DD-3 antibody = assay: Direct competitive EIA with immobilized DD-3 monoclonal antibody and competitor-HRP conjugate; format: binding, mouse; conditions: for Assay sensitivity compared with the Hapten I enzyme conjugate based assay: analyte 2,3,7,8-TCDD; for Assay sensitivity compared with the Hapten I enzyme conjugate based assay / I50 (pg/well) / I85 (mdl, pg/well): DD-3 antibody; for I50 (pg/well) / I85 (mdl, pg/well): analyte 2,3,7,8-tetrachlorodibenzo-p-dioxin, listed competitor as HRP conjugate
Description: Antibodies can be readily prepared by standard methods. […] M. Vanderlaan, et al., U.S. Pat. No. 4,798,807 (1989).
The competitors A-F (FIG. 2) and Hapten I (FIG. 1) were conjugated to the enzyme, amino modified Horseradish Peroxidase (HRP) (horseradish peroxidase commercially available from Sigma Chemical Co. (No. P-6782), St. Louis, Mo.; amino modified per R. Hsiao and H. Royer, Archives Biochem. Biophys., 198, 379-385 (1979) to give 6-24 free amines), using the carbodiimide mediated carboxyl activation procedure described in Example 7. Hapten and competitor load were determined by UV/Vis spectroscopy, also as described in Example 7.
The direct EIA (immobilized antibody and competitor enzyme conjugate) was performed as follows. Monoclonal antibody supernatant stored at -20° C. was diluted 1,000-40,000 fold with PBS which contained 0.1% Tween-20. This solution was dispensed (500 ul) into donkey anti-mouse second antibody coated tubes (DAM Tubes commercially available from Millipore Corp., Bedford, Mass.) and incubated at room temperature overnight. The antisera solution was decanted from the tubes and the tubes washed 3 times with distilled water. Non-specific sites in the tubes were blocked with 600 ul of BSA blocking buffer (EIA Blocking Buffer commercially available from Millipore Corp., Bedford, Mass.) and incubated for 2 hours at room temperature or overnight at 4° C. The blocking buffer was decanted and the tubes allowed to dry under ambient room conditions for at least 2 hours. The assay was performed by adding 500 ul of assay diluent (1% methanol (v/v) and 0.005% Tween-20 (w/v) in distilled water) to the required number of tubes followed by 10 ul of a methanol solution of the analyte (PCDD or PCDF). After a 5 minute incubation at room temperature, the solution was decanted and the tubes rinsed 3-4 times with tap water. The horseradish peroxidase competitor or Hapten I conjugates were diluted 1,000-60,000 fold from 2-5 mg/ml stock solutions in PBS with conjugate diluent (Enzyme Conjugate Diluent commercially available from Millipore Corp., Bedford, Mass.). The enzyme conjugate (200 ul) was added to the tubes followed by a 5 minute incubation at room temperature. The conjugate solution was decanted and the tubes rinsed 3-4 times with tap water. Enzyme substrate solution (500 ul, KPL No. 50-76-04 commercially available from KPL Laboratories, Gaithersburg, Md.) was added and the tubes were incubated at room temperature for 5-15 minutes. The enzyme reaction was stopped with the addition of 500 ul of 1N HCl. The OD of the solution was determined at 450 nm. The data was plotted using Log (Congener Concentration) versus B/Bo (B=Sample Absorbance, Bo=Sample Blank Absorbance).

[2] = most toxic PCDD/PCDF congeners, reference 2,3,7,8-TCDD = 1.0, S. Safe 1990
[3] = toxicity relative to 2,3,7,8-TCDD
[4] = analyte 2,3,7,8-tetrachlorodibenzofuran, DD-3 and Competitor F

## Clc1cc2oc3cc(Cl)c(Cl)c(Cl)c3c2c(Cl)c1Cl [1,2,3,7,8,9-HxCDF]
[1]
  TEF* (toxic equivalency factor): 0.1
[1]; [2]
  TEF: 0.1

## O=C(O)CCCOc1ccc(Cl)c(Cl)c1 [Competitor D]
DD-3 antibody
  Assay sensitivity compared with the Hapten I enzyme conjugate based assay: significantly more sensitive
  I50 (pg/well): 380 pg/well
  I85 (mdl, pg/well): 15 pg/well

## Clc1cc(Cl)c2c(c1Cl)Oc1c(Cl)c(Cl)c(Cl)c(Cl)c1O2 [1,2,3,4,6,7,9-HpCDD]
[1]
  TEF* (toxic equivalency factor): 0.01
[1]; [2]
  TEF: 0.01

## O=C(O)CCCC(=O)c1ccc(Cl)c(Cl)c1 [Competitor F]
DD-3 antibody
  Assay sensitivity compared with the Hapten I enzyme conjugate based assay: significantly more sensitive
  I50 (pg/well): 230 pg/well
  I85 (mdl, pg/well): 13 pg/well

## O=C(O)CCc1ccc(Cl)c(Cl)c1 [Competitor B]
DD-3 antibody
  Assay sensitivity compared with the Hapten I enzyme conjugate based assay: significantly more sensitive
  I50 (pg/well): 350 pg/well
  I85 (mdl, pg/well): 20 pg/well

## Clc1cc2c(c(Cl)c1Cl)Oc1cc(Cl)c(Cl)c(Cl)c1O2 [1,2,3,6,7,8-HxCDD]
[1]
  TEF* (toxic equivalency factor): 0.1
[1]; [2]
  TEF: 0.1

## Clc1cc2oc3cc(Cl)c(Cl)c(Cl)c3c2cc1Cl [1,2,3,7,8-PeCDF]
[1]
  TEF* (toxic equivalency factor): 0.05
[1]; [2]
  TEF: 0.05

## Clc1cc2c(cc1Cl)Oc1c(cc(Cl)c(Cl)c1Cl)O2 [1,2,3,7,8-PeCDD]
[1]
  TEF* (toxic equivalency factor): 0.5
[1]; [2]
  TEF: 0.5

## Clc1cc2c(oc3cc(Cl)c(Cl)c(Cl)c32)c(Cl)c1Cl [1,2,3,6,7,8-HxCDF]
[1]
  TEF* (toxic equivalency factor): 0.1
[1]; [2]
  TEF: 0.1

## Clc1cc2c(cc1Cl)Oc1cc(Cl)c(Cl)cc1O2 [2,3,7,8-TCDD, 2,3,7,8-tetrachlorodibenzo-p-dioxin]
[1]
  TEF* (toxic equivalency factor): 1
[1]; [2]
  TEF: 1.0
[1]; [3]
  TEF: 1.0

## O=C(O)CCCCc1cc(Cl)ccc1Cl [Competitor A, 5-(2,5-dichlorophenyl)pentanoic acid]
DD-3 antibody
  Assay sensitivity compared with the Hapten I enzyme conjugate based assay: significantly more sensitive
  I50 (pg/well): 1,000 pg/well
  I85 (mdl, pg/well): 25 pg/well

## Clc1cc2c(c(Cl)c1Cl)Oc1c(Cl)c(Cl)c(Cl)c(Cl)c1O2 [1,2,3,4,6,7,8-heptachlorodibenzo-p-dioxin]
[1]; [2]
  TEF: 0.01
[1]; [3]
  TEF: 0.01

## Clc1c(Cl)c(Cl)c2c(c1Cl)Oc1c(Cl)c(Cl)c(Cl)c(Cl)c1O2 [OCDD]
[1]
  TEF* (toxic equivalency factor): 0.001
[1]; [2]
  TEF: 0.001

## Clc1cc2oc3c(Cl)c(Cl)c(Cl)c(Cl)c3c2c(Cl)c1Cl [1,2,3,4,7,8,9-HpCDF]
[1]
  TEF* (toxic equivalency factor): 0.01
[1]; [2]
  TEF: 0.01

## O=C(O)CCCOc1ccc(Cl)cc1Cl [Competitor C]
DD-3 antibody
  Assay sensitivity compared with the Hapten I enzyme conjugate based assay: significantly more sensitive
  I50 (pg/well): 230 pg/well
  I85 (mdl, pg/well): 13 pg/well

## Clc1cc2c(cc1Cl)Oc1c(Cl)c(Cl)c(Cl)c(Cl)c1O2 [1,2,3,4,7,8-HxCDD]
[1]
  TEF* (toxic equivalency factor): 0.1
[1]; [2]
  TEF: 0.1

## Clc1cc2oc3c(Cl)c(Cl)c(Cl)c(Cl)c3c2cc1Cl [1,2,3,4,7,8-HxCDF]
[1]
  TEF* (toxic equivalency factor): 0.1
[1]; [2]
  TEF: 0.1

## Clc1cc2c(c(Cl)c1Cl)Oc1c(cc(Cl)c(Cl)c1Cl)O2 [1,2,3,7,8,9-HxCDD]
[1]
  TEF* (toxic equivalency factor): 0.1
[1]; [2]
  TEF: 0.1

## Clc1cc2oc3cc(Cl)c(Cl)cc3c2cc1Cl [2,3,7,8-TCDF, 2,3,7,8-tetrachlorodibenzofuran]
DD-3 antibody; analyte 2,3,7,8-tetrachlorodibenzofuran, Competitor F versus literature Hapten I assay (Stanker 1987)
  Factor more sensitive than DD-3 and Hapten I assay system: ~10
DD-3 antibody; [4]
  I50: 800 pg/well
  I85 (mdl): 80 pg/well
[1]
  TEF* (toxic equivalency factor): 0.1
[1]; [2]
  TEF: 0.1

## Clc1cc2c(oc3c(Cl)c(Cl)c(Cl)cc32)c(Cl)c1Cl [2,3,4,6,7,8-HxCDF]
[1]
  TEF* (toxic equivalency factor): 0.1
[1]; [2]
  TEF: 0.1

## Clc1cc2c(oc3c(Cl)c(Cl)c(Cl)c(Cl)c32)c(Cl)c1Cl [1,2,3,4,6,7,8-HpCDF]
[1]
  TEF* (toxic equivalency factor): 0.01
[1]; [2]
  TEF: 0.01

## O=C(O)CCCSc1cc(Cl)ccc1Cl [Competitor E]
DD-3 antibody
  Assay sensitivity compared with the Hapten I enzyme conjugate based assay: significantly more sensitive
  I50 (pg/well): 380 pg/well
  I85 (mdl, pg/well): 15 pg/well

## Clc1c(Cl)c(Cl)c2c(oc3c(Cl)c(Cl)c(Cl)c(Cl)c32)c1Cl [OCDF]
[1]
  TEF* (toxic equivalency factor): 0.001
[1]; [2]
  TEF: 0.001
